Test results: publication PMC9782211 (Microorganisms, 2022)

Key:
[1] = test system: LS-174T cells (human colon adenocarcinoma cell line); experiment: Bionas chip-based system, respiration rate; assay type: cell-based; conditions: 24 h peptide exposure
Experimental: (§1) Cytotoxicity was assayed by using the chip-based Bionas system with four different cell types. These include human hepatoma cells (HepG2), human colon adenocarcinoma cells (LS-174T), human acute lymphocytic leukemic cells (Jurkat), and human peripheral blood mononuclear cells (hPBMC), provided by Cell Line Services (Piscataway, NJ, USA) and ProBioGen (Berlin, Germany). The cells were seeded on chips, with a density of 200,000 cells/chip for HepG2 and LS-174T, 300,000 cells/chip for Jurkat, and 2 million cells/chip for PBMC.
(§2) A metabolic investigation with four cells and cell lines on the effect of Pep19-2.5 on selected cell parameters was performed. In detail, see Table 1.
(§3) The analysis was performed in the Bionas® 2500 analyzing system by seeding the cells on the chips, with cell numbers of 200,000 for HepG2 cells and LS-174T cells, and 300,000 for Jurkat cells. The suspended cells were embedded on the day of the experiment in agarose and immediately put into the Bionas® 2500 analyzing system. The settling phase (‘RM’) was 5 h. The peptides were added after 5 h for 24 h, then a regeneration phase followed for 4 h (‘RM’), and in the last phase the cells were lysed with 0.2% triton in fresh medium (‘TX’). For the parameters acidification, respiration, and adhesion (impedance), the mean values from two experiments were calculated. […]

[2] = test system: human PBMC cells; experiment: Bionas chip-based system, respiration rate; assay type: cell-based; conditions: 24 h peptide exposure
Experimental: as §1, §2, §3

[3] = biological target: T1, hERG ion channel (gene ID 3757) (Homo sapiens, UniProt Q12809); experiment: Automated planar patch clamp (QPatch), hERG in CHO cells; assay type: cell-based; conditions: for relative remaining hERG current: QPatch
T1 construct: expressed in transfected cells
Experimental: For automated patch clamp experiments, QPatch, a planar patch clamp robot, was used. QPatch experiments were performed as previously described. […] Patch clamp experiments were performed in the whole-cell voltage clamp mode on a planar patch clamp chip. Successfully clamped cells were stimulated with the following stimulation protocol: From a holding potential of −80 mV, the cells were partially depolarized to −50 mV to test the leak current at this potential where hERG channels are closed. This was followed by a depolarization to +40 mV. At this depolarized potential, the hERG channels alternate between the open and inactivated states. After partially repolarizing to −50 mV, the inactivated subpopulation of hERG channels rapidly recovers from inactivation and switches into the open state, from where the channels slowly close.
Aspidasept (Pep19-2.5) was applied at nominal concentrations of 1 µg/mL, 10 µg/mL, and 100 µg/mL, and remaining hERG mediated potassium channel currents normalized to initial currents were calculated.

[4] = test system: local lymph node; experiment: Local lymph node assay (LLNA), skin sensitization; assay type: in vivo, mouse
Experimental: • Application of substance on external surface of each ear (25 µL/ear) for 3 consecutive days • On day 6, intravenous injection of tritiated methyl thymidine (^3HTdR) in tail vein, and after about 6 h, sacrification and preparation of lymph node cell • Cell proliferation in lymph node measured by incorporation of ^3HTdR

T1 sequence (Q12809 whole entry): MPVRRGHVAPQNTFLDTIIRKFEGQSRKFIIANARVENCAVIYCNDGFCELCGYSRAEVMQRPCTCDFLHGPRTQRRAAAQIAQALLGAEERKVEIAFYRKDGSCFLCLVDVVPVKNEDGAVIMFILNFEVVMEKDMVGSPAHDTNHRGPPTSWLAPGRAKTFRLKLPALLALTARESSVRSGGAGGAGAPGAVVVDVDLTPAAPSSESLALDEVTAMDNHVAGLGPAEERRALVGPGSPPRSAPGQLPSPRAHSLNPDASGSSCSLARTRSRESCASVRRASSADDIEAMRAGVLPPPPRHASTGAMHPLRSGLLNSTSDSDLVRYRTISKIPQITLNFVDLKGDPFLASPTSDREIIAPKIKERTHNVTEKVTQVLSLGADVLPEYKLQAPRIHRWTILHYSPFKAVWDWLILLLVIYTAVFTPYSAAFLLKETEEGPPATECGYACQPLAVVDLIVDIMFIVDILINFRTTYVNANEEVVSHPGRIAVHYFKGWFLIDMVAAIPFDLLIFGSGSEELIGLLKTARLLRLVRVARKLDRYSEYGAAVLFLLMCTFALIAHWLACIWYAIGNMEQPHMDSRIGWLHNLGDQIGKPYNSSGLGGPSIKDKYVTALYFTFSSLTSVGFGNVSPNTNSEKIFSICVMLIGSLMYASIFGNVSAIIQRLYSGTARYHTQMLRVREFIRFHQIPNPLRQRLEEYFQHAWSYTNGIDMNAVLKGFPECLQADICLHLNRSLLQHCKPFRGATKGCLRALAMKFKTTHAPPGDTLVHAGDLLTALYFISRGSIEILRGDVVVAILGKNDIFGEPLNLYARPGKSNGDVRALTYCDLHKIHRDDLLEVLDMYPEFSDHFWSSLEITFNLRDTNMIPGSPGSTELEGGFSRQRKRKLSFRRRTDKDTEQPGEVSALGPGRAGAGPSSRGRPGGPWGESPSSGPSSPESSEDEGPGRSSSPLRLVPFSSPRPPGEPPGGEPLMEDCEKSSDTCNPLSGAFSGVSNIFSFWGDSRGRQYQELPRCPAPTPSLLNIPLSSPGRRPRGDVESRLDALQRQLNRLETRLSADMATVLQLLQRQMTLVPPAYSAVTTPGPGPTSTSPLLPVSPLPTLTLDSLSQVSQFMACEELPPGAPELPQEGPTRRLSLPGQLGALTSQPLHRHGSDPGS

## N=C(N)NCCC[C@H](NC(=O)[C@H](Cc1ccc(O)cc1)NC(=O)[C@H](CCCCN)NC(=O)[C@H](CCCCN)NC(=O)[C@H](CS)NC(=O)CN)C(=O)N[C@@H](CCCNC(=N)N)C(=O)N[C@@H](Cc1ccccc1)C(=O)N[C@@H](CCCNC(=N)N)C(=O)N[C@@H](Cc1c[nH]c2ccccc12)C(=O)N[C@@H](CCCCN)C(=O)N[C@@H](Cc1ccccc1)C(=O)N[C@@H](CCCCN)C(=O)NCC(=O)N[C@@H](CCCCN)C(=O)N[C@@H](Cc1ccccc1)C(=O)N[C@@H](Cc1c[nH]c2ccccc12)C(=O)N[C@@H](Cc1ccccc1)C(=O)N[C@@H](Cc1c[nH]c2ccccc12)C(=O)NCC(N)=O [Pep19-2.5]
[1]
  concentration above which toxic effects are observed (respiration rate): above 20 μg/mL
[2]
  concentration above which respiration rate increased significantly: above 50 μg/mL
[3]; 1 µg/mL, fraction
  Rel. Rem. Current ± SD (QPatch): 0.97 ± 0.02
[3]; 10 µg/mL, fraction
  Rel. Rem. Current (QPatch, 20 min Application): 0.92
  Rel. Rem. Current ± SD (QPatch): 0.95 ± 0.02
[3]; 1 µg/mL (Aspidasept n = 4; Pep19-4LF n = 3)
  relative remaining hERG current: 97.2 ± 2.2%
[3]; 10 µg/mL (Aspidasept n = 4; Pep19-4LF n = 1)
  relative remaining hERG current: 95.2 ± 2.5%
[3]; 10 µg/mL applied for up to 20 min
  relative remaining hERG current: 92.2%
[3]; estimated, no significant effect at highest concentration tested (10 µg/mL), read-out: hypothetical IC50 on hERG-mediated potassium current
  IC50: > 3.69 µM
[4]; 5%, 2.5%, 1% and 0.5% (w/v) in 1% Pluronic aqueous solution, 25 µL/ear, 3 consecutive days, 3HTdR incorporation
  skin sensitization potential: no skin sensitization potential
[4]; up to 5% (w/v) in aqueous 1% Pluronic
  preliminary irritation/toxicity test: no adverse effect
